Experimental data: patent US20260026529A1, “MATERIALS AND METHODS FOR THE MANUFACTURE OF AN ANIMAL FEED” (In the Bowl Animal Health, Inc., priority 2023, published 2026)
Counter-ions that a name gives are not always drawn. Marks after values point to notes of the source that are not given here.

Assays:
[1] = Solubility of active ingredients in liquid carriers, transmissivity measurement with a crystallizer multi-reactor
Source text: To determine the solubility of various active ingredients that could be incorporated into pet food, each active ingredient may be evaluated in a temperature dependent manner using a crystallizer multi-reactor with transmissivity measurements.
Carrier of interest may be prepared as needed and specific active ingredients may be added to the solvents to form mixtures of the solvent and active. […] If mixing and/or heating fails to provide visual evidence that an active ingredient dissolves in the test solvent carrier no further solubility testing of the active ingredient with the test carrier can be conducted.
For active ingredients that appear to at least partially dissolve in a given carrier, the mixtures can be analyzed by transmissivity measurement using a crystallizer multi-reactor. Prior to the transmissivity measurement using a crystallizer multi-reactor with transmissivity capability, carriers may be prepared, as needed, and subsequently tested using a heating cycle over a range of temperatures. The transmissivity data can be recorded over the temperature ranges and used as a blank or reference in subsequent transmissivity measurements.
Typically, initial samples including the active ingredient of interest and the test carrier are not readily soluble at room temperature and may register low percent transmissivity along with visible observations of insolubilized material. When resulting admixtures are heated at a specific heating rate, the percent transmissivity increases as the active ingredient is solubilized. When the solids are completely dissolved, the transmissivity is measured as 100%. When the resulting heated admixture is subsequently cooled, solids may precipitate at a given temperature and cooling rate, which results in a decrease in percent transmissivity. The temperature and time at which precipitation occurs with a specific admixture provides additional information regarding solubility and the combination of parameters needed for selection to prepare feed with the active ingredient of interest.
Carriers include, refined chicken fat, refined chicken fat including lecithin, refined chicken fat including Tween80, refined chicken fat including triacetin, and triacetin may be used as carrier systems over a range of temperatures, ramp rates, stirring rates, and cooling cycles to evaluate stability.
Admixture experiments may be performed with active ingredients including, e.g., mivorilaner, sarolaner, lotilaner, fluralaner, afoxolaner, spinosad, pyrantel, praziquantel, fenbendazole, diethylcarbamazine, moxidectin, gabapentin and metformin in combination with different test carriers using the methodology described herein. “Apparent solubility” is a term used herein to denote that the admixture may be a true solution, i.e., an admixture in which the active ingredient completely dissolves into the carrier liquid. However, the term “apparent solubility” also can include suspensions and emulsions, for example, which resemble a true solution but are not.

[2] = Solubility of mivorilaner in carriers under isothermal conditions; type: physicochemical
Procedure: The solubility of mivorilaner in a number of carriers was also measured under isothermal conditions.

Row | SMILES | Measured Concentration ([1]; carrier CF, Up to 60 ° C.) | Time to Achieve Apparent Solubility ([1]; carrier CF, Up to 60 ° C.) | Measured Concentration ([1]; carrier Triacetin, 20-22 ° C.) | Solubility in a combination of chicken fat and lecithin ([2]; chicken fat and lecithin) | Solubility observation, chicken fat only ([2]; chicken fat only, all experiments) | Time to Achieve Apparent Solubility ([1]; carrier Chicken Fat + Tween 80, 2.0 mg/g, 40 ° C.) | Effect of the presence of lecithin on solubility ([1]; chicken fat vs chicken fat including 4% (w/w) lecithin, 2-16 mg/g, 0.1° C./minute, 39° C. to 60° C., FIG. 5)
1 | NCC1(CC(=O)O)CCCCC1 [Gabapentin] | 0 mg/g | Insoluble | <1 mg/g |  |  |  | 
2 | O=C(CNC(=O)c1sc(C2=NO[C@@](c3cc(Cl)c(F)c(Cl)c3)(C(F)(F)F)C2)c2c1CCC2)NCC(F)F [Mivorilaner] |  |  |  | soluble over a wide range of concentrations and temperatures | visible detection of agglomerates was noted in all experiments | 1.5** hours | increased mivorilaner solubility
3 | CN(C)C(=N)N=C(N)N [Metformin-HCI, Metformin HCl] | 0 mg/g |  | <1 mg/g |  |  |  | 
